Experiments:
D. immitis Slo-1 = D. immitis Slo-1 (Dirofilaria immitis, UniProt I0DFK5); experiment: D. immitis Slo-1, action at a recombinant CHO cell line (membrane potential, FLIPR); type: cell-based
[1] = tested on: Nippostrongylus brasiliensis; experiment: Nippostrongylus brasiliensis (NIPOBR) adult worms, acetylcholine esterase readout; settings: read-out: activity (reduction of AChE compared to negative control); for inhibition at 1 µg/mL: at 1 μg/ml (1 ppm); for inhibition at 10 µg/mL: at 10 μg/ml (10 ppm)
Method: In Vitro Assay 3: Nippostrongylus brasiliensis (NIPOBR)
Adult Nippostrongylus brasiliensis were washed with saline buffer containing 100 U/ml penicillin, 0.1 mg/ml streptomycin and 2.5 μg/ml amphotericin B. Test compounds were dissolved in DMSO and worms were incubated in medium in a final concentration of 10 μg/ml (10 ppm) respectively 1 μg/ml (1 ppm). An aliquot of the medium was used to determine the acetylcholine esterase activity in comparison to a negative control. The principle of measuring acetylcholine esterase as readout for anthelmintic activity was described in Rapson et al (1986) and Rapson et al (1987).

[2] = tested on: Dirofilaria immitis microfilariae; experiment: Dirofilaria immitis microfilariae (DIROIM L1) motility; settings: 72 h, read-out: EC50 (reduction of motility)
Dirofilaria immitis = Dirofilaria immitis (DIROIM L4) larval motility; settings: 72 h, read-out: EC50 (reduction of motility)
C. elegans Slo-1a = C. elegans Slo-1a (Caenorhabditis elegans, UniProt Q95V25); settings: pE50 (negative decadic logarithm of EC50), CHO cells expressing C. elegans Slo-1a; voltage sensitive dye, 70 mM KCl
Method: Generation of a Stable C. elegans CHO Cell Line
A CHO cell line was obtained from ATCC, code ATCC CRL-9096. […] The transfection solution included 300 μL OptiMEM (Life Technologies, Nr.: 31985), 2 μL (=6 μg) of plasmid DNA containing the C. elegans Slo 1a gene and 9 μL FugeneHD (Promega, Nr.: E2311), and was added to the cells prior to incubation for 48 hours at 37° C., 5% CO2. The transfection medium was exchanged for the selection medium which contains additional G418 (2 mg/ml, Invitrogen, Nr.: 10131) and the cells were seeded into 384 well plates (300 cells/well). After a few weeks, the remaining surviving cells were tested with a voltage sensitive dye (Membrane Potential Assay Kit, Molecular Devices Nr.: R8034) for K+ channel expression. Positive cell clones were purified by the limited dilution technique. For this the clone with the highest and most robust signal in the voltage sensitive dye assay was further subcloned (incubated) in 384 well plates (0.7 cells/well) in order to obtain clonal purity. This generated a final stable CHO cell line expressing the C. elegans Slo-1a.
Cells were cultured at 37° C. and 5% CO2 in MEMalpha with Gutamax I (Invitrogen, Nr.: 32571), supplemented with 10% (v/v) heat inactivated fetal bovine serum (Invitrogen, Nr.: 10500), G418 (1 mg/ml, Invitrogen, Nr.: 10131). Cells were detached using Accutase (Sigma, Nr.: A6964).
Membrane Potential Measurements
Laboratory compound testing was performed on 384-well microtiter plates (MTPs, Greiner, Nr.: 781092). 8000 cells/well were plated onto 384-well MTPs and cultured for 20 to 24 hours at 37° C. and 5% CO2. After removal of the cell culture medium, the cells were washed once with tyrode (150 mM NaCl, 0.3 mM KCl, 2 mM CaCl2, 1 mM MgCl2, 0.8 mM NaH2PO4, 5 mM Glucose, 28 mM Hepes, pH 7.4) and then loaded with the voltage sensitive dye of the Membrane Potential Assay Kit diluted in tyrode for 1 h at room temperature.
After starting the measurement of fluorescence using a FLIPR Tetra (Molecular Devices, Exc. 510-545 nm, Emm. 565-625 nm), test compounds were added followed by the addition of KCl tyrode (final assay concentration: 70 mM KCl, 2 mM CaCl2, 1 mM MgCl2, 0.8 mM NaH2PO4, 5 mM Glucose, 28 mM Hepes, pH 7.4, including the voltage sensitive dye). The measurement was completed after 7 minutes.
The data were evaluated by using the ActivityBase XLfit software (IDBS) for curve fitting and calculation of the half-maximal effective concentration (EC50) and are reported as negative decadic logarithm (pE50).

Cooperia curticei = Cooperia curticei larval mortality; settings: 120 h, read-out: activity (percentage of larval mortality)
Method: In Vitro Assay 6: Cooperia curticei
Solvent: Dimethyl Sulfoxide
Approximately 40 nematode larvae (Cooperia curticei) are transferred into a test tube containing the compound solution.
After 5 days percentage of larval mortality is recorded. 100% efficacy means all larvae are killed; 0% efficacy means no larvae are killed.

Haemonchus contortus = Haemonchus contortus larval mortality; settings: 120 h, read-out: activity (percentage of larval mortality)
Method: In Vitro Assay 7: Haemonchus contortus
Solvent: Dimethyl Sulfoxide
Approximately 40 larvae of the red stomach worm (Haemonchus contortus) are transferred into a test tube containing compound solution.
After 5 days the percentage of larval mortality is recorded. 100% efficacy means all larvae are killed, 0% efficacy means no larvae are killed.

D. immitis Slo-1, sequence (I0DFK5 1-1119): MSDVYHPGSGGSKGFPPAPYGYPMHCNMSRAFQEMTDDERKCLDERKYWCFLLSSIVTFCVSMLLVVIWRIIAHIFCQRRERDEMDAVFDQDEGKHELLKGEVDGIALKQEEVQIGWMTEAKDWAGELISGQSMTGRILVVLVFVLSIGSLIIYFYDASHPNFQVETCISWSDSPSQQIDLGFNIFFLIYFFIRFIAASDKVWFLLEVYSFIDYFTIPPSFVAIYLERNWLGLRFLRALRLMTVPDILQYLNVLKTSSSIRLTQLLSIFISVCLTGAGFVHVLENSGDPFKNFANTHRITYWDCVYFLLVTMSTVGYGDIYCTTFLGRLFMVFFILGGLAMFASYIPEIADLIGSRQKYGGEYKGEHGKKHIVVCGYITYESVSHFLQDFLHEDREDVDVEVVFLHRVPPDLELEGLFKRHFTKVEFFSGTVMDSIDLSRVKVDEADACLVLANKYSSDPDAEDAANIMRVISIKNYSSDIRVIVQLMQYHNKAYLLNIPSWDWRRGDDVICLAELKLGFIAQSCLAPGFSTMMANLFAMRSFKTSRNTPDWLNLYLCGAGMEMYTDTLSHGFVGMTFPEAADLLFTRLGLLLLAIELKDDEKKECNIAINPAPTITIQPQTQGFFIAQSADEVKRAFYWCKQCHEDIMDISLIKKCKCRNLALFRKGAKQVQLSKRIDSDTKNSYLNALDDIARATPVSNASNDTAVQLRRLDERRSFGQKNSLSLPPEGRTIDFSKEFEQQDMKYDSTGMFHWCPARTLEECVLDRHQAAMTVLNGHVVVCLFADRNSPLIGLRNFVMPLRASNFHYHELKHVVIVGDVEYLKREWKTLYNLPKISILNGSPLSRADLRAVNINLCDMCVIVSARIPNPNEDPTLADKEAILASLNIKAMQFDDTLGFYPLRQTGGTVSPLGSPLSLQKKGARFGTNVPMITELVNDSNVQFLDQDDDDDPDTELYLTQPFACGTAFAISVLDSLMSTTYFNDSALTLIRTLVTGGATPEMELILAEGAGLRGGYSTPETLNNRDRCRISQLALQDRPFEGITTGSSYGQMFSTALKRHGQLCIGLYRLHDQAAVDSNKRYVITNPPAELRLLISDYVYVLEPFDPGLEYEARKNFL
C. elegans Slo-1a, sequence (Q95V25 whole entry): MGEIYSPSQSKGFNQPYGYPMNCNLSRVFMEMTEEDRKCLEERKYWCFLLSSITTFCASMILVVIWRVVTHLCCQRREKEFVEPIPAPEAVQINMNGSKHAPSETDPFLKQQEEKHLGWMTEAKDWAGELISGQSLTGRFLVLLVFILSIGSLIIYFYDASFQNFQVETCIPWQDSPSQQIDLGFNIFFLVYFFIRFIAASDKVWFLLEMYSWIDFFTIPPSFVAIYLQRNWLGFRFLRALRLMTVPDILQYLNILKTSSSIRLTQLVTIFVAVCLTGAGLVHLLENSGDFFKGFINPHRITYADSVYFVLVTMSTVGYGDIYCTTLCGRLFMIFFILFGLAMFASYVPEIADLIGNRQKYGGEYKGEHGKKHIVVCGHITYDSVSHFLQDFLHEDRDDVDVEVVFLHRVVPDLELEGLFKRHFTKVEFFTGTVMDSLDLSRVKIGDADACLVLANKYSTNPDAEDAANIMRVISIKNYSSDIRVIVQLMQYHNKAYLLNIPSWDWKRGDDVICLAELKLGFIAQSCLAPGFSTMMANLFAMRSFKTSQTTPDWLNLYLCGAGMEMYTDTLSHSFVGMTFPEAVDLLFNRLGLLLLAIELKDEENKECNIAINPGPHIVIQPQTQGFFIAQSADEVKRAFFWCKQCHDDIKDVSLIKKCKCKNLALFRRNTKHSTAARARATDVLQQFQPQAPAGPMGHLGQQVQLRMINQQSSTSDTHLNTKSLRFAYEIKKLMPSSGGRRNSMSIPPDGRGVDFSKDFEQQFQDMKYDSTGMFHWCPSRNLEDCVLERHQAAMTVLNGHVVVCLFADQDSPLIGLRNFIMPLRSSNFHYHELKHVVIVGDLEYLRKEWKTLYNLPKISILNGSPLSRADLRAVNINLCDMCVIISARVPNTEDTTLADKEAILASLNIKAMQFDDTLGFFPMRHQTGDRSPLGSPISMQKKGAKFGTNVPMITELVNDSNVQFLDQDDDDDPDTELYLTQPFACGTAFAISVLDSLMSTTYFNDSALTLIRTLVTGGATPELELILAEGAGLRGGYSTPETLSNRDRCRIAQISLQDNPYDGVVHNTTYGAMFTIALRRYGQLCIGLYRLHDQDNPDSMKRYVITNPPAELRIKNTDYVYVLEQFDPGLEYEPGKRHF

Structure (SMILES)	EC50 (D. immitis Slo-1) [nM]	inhibition at 1 µg/mL [1] [%]	inhibition at 10 µg/mL [1] [%]	EC50 [2] [µg/mL]	EC50 (Dirofilaria immitis) [µg/mL]	EC50 (C. elegans Slo-1a) [nM]	mortality at 20 ppm (Cooperia curticei) [%]	mortality at 20 ppm (Haemonchus contortus) [%]
O=C(N[C@H]1CCOc2ccccc21)c1cnc2c(-c3cccc(Cl)c3Cl)ncc(F)c2c1N1CCOCC1 [Example T1-7, 8-(2,3-dichlorophenyl)-N-[(4S)-3,4-dihydro-2H-1-benzopyran-4-yl]-5-fluoro-4-(morpholin-4-yl)-1,7-naphthyridine-3-carboxamide]	3.16 to 31.6	> 80	> 80	< 0.1	< 0.1	< 3.16		
COc1cnc(-c2cc(F)cc(F)c2F)c2ncc(C(=O)N[C@H]3CCOc4ccccc43)c(N3CCOCC3)c12 [Example T1-9, N-[(4S)-3,4-dihydro-2H-1-benzopyran-4-yl]-5-methoxy-4-(morpholin-4-yl)-8-(2,3,5-trifluorophenyl)-1,7-naphthyridine-3-carboxamide]	31.6 to 316	> 80	> 80		< 0.1	3.16 to 31.6		
COc1cnc(-c2cccc(Cl)c2Cl)c2ncc(C(=O)N[C@H]3CCOc4ccccc43)c(N(C)C)c12 [Example T1-11, 8-(2,3-dichlorophenyl)-N-[(4S)-3,4-dihydro-2H-1-benzopyran-4-yl]-4-(dimethylamino)-5-methoxy-1,7-naphthyridine-3-carboxamide]	31.6 to 316	> 80	> 80	< 0.1	< 0.1	3.16 to 31.6		
COc1cnc(-c2cccc(Cl)c2Cl)c2ncc(C(=O)N[C@H]3CCOc4ccccc43)c(N3CCOCC3)c12 [Example T1-14, 8-(2,3-dichlorophenyl)-N-[(4S)-3,4-dihydro-2H-1-benzopyran-4-yl]-5-methoxy-4-(morpholin-4-yl)-1,7-naphthyridine-3-carboxamide]	31.6 to 316	> 80	> 80	< 0.1	< 0.1	3.16 to 31.6		
O=C(N[C@H]1CCOc2ccccc21)c1cnc2c(-c3cccc(Cl)c3Cl)nccc2c1 [Example T1-15, 8-(2,3-dichlorophenyl)-N-[(4S)-3,4-dihydro-2H-chromen-4-yl]-1,7-naphthyridine-3-carboxamide]						31.6 to 316		
CN(C)c1c(C(=O)N[C@H]2CCOc3ccccc32)cnc2c(-c3cccc(Cl)c3Cl)cncc12 [Example T2-2, 8-(2,3-Dichlorophenyl)-N-[(4S)-3,4-dihydro-2H-chromen-4-yl]-4-(dimethylamino)-1,6-naphthyridine-3-carboxamide]			> 80	< 0.1		3.16 to 31.6		
O=C(N[C@H]1CCOc2ccccc21)c1cnc2c(-c3cc(Cl)cc(Cl)c3)cncc2c1N1CCOCC1 [Example T2-4, 8-(3,5-Dichlorophenyl)-N-[(4S)-3,4-dihydro-2H-chromen-4-yl]-4-(morpholin-4-yl)-1,6-naphthyridine-3-carboxamide]	31.6 to 316	> 80		< 0.1	< 0.1	3.16 to 31.6		
COc1ncc(-c2cccc(Cl)c2Cl)c2ncc(C(=O)N[C@H]3CCOc4ccccc43)c(N3CCOCC3)c12 [Example T2-11, 8-(2,3-dichlorophenyl)-N-[(4S)-3,4-dihydro-2H-1-benzopyran-4-yl]-5-methoxy-4-(morpholin-4-yl)-1,6-naphthyridine-3-carboxamide]	31.6 to 316	> 80	> 80	< 0.1	< 0.1	< 3.16		
O=C(N[C@H]1CCOc2ccccc21)c1cnc2c(-c3cccc(Cl)c3Cl)c(F)cnc2c1N1CCOCC1 [Example T3-18, 8-(2,3-dichlorophneyl)-N-[(4S)-3,4-dihydro-2H-1-benzopyran-4-yl]-7-fluoro-4-(morpholin-4-yl)-1,5-naphthyridine-3-carboxamide]	3.16 to 31.6	> 80	> 80	< 0.1	< 0.1			
CN(C)c1c(C(=O)N[C@H]2CCOc3ccccc32)cnc2c(-c3cc(F)cc(F)c3F)c(F)cnc12 [Example T3-19, N-[(4S)-3,4-dihydro-2H-1-benzopyran-4-yl]-4-(dimethylamino)-7-fluoro-8-(2,3,5-trifluorophenyl)-1,5-naphthyridine-3-carboxamide]	3.16 to 31.6	> 80	> 80	< 0.1	< 0.1			
CN(C)c1c(C(=O)N[C@H]2CCOc3ccccc32)cnc2c(-c3cc(Cl)cc(Cl)c3)ncnc12 [Example T4-1, 4-(3,5-Dichlorophenyl)-N-[(4S)-3,4-dihydro-2H-chromen-4-yl]-8-(dimethylamino)-pyrido[3,2-d]pyrimidine-7-carboxamide]	31.6 to 316	> 80	> 80	< 0.1	< 0.1	3.16 to 31.6	80	
O=C(N[C@H]1CCOc2ccccc21)c1cnc2c(-c3cc(Cl)cc(Cl)c3)ncnc2c1N1CCOCC1 [Example T4-2, 4-(3,5-Dichlorophenyl)-N-[(4S)-3,4-dihydro-2H-chromen-4-yl]-8-(morpholin-4-yl)pyrido[3,2-d]pyrimidine-7-carboxamide]	31.6 to 316	> 80	> 80	< 0.1	< 0.1	3.16 to 31.6		
CN(C)c1c(C(=O)N[C@H]2CCOc3ccccc32)nnc2c(-c3cc(Cl)cc(Cl)c3)cccc12 [Example T5-1, 8-(3,5-Dichlorophenyl)-N-[(4S)-3,4-dihydro-2H-chromen-4-yl]-4-(dimethylamino)cinnoline-3-carboxamide]	31.6 to 316	> 80		< 0.1	< 0.1	< 3.16		
CN(C)c1c(C(=O)N[C@H]2CCOc3ccccc32)nnc2c(-c3cccc(Cl)c3)cccc12 [Example T5-2, 8-(3-Chlorophenyl)-N-[(4S)-3,4-dihydro-2H-chromen-4-yl]-4-(dimethylamino)cinnoline-3-carboxamide]	31.6 to 316			< 0.1		3.16 to 31.6	80	80
CN(C)c1c(C(=O)N[C@H]2CCOc3ccccc32)nnc2c(-c3cccc(Cl)c3Cl)cccc12 [Example T5-3, 8-(2,3-Dichlorophenyl)-N-[(4S)-3,4-dihydro-2H-chromen-4-yl]-4-(dimethylamino)cinnoline-3-carboxamide]	3.16 to 31.6	> 80		< 0.1	< 0.1	< 3.16	80	
CN(C)c1c(C(=O)N[C@H]2CCOc3ccccc32)nnc2c(-c3ccc(F)c(F)c3)cccc12 [Example T5-4, 8-(3,4-Difluorophenyl)-N-[(4S)-3,4-dihydro-2H-chromen-4-yl]-4-(dimethylamino)cinnoline-3-carboxamide]	31.6 to 316			< 0.1		31.6 to 316		
COc1c(C(=O)N[C@H]2CCOc3ccccc32)nnc2c(-c3cccc(Cl)c3)cccc12 [Example T5-6, 8-(3-Chlorophenyl)-N-[(4S)-3,4-dihydro-2H-chromen-4-yl]-4-methoxycinnoline-3-carboxamide]	31.6 to 316			< 0.1		3.16 to 31.6	80	
COc1c(C(=O)N[C@H]2CCOc3ccccc32)nnc2c(-c3ccc(F)c(F)c3)cccc12 [Example T5-8, 8-(3,4-Difluorophenyl)-N-[(4S)-3,4-dihydro-2H-chromen-4-yl]-4-methoxycinnoline-3-carboxamide]	31.6 to 316			< 0.1		3.16 to 31.6		
O=C(N[C@H]1CCOc2ccccc21)c1cnc2c(-c3cccc(Cl)c3Cl)cnnc2c1N1CCOCC1 [Example T6-2, 4-(2,3-Dichlorophenyl)-N-[(4S)-3,4-dihydro-2H-chromen-4-yl]-8-(morpholin-4-yl)pyrido[3,2-c]pyridazine-7-carboxamide]		> 80		< 0.1		31.6 to 316	90	
CN(C)c1c(C(=O)N[C@H]2CCOc3ccccc32)cnc2c(-c3cc(Cl)cc(Cl)c3)cnnc12 [Example T6-3, 4-(3,5-Dichlorophenyl)-N-[(4S)-3,4-dihydro-2H-chromen-4-yl]-8-(dimethylamino)pyrido[3,2-c]pyridazine-7-carboxamide]	31.6 to 316	> 80		< 0.1	< 0.1	3.16 to 31.6		90
O=C(N[C@H]1CCOc2ccccc21)c1cnc2c(-c3cc(Cl)cc(Cl)c3)cnnc2c1N1CCOCC1 [Example T6-4, 4-(3,5-Dichlorophenyl)-N-[(4S)-3,4-dihydro-2H-chromen-4-yl]-8-(morpholin-4-yl)pyrido[3,2-c]pyridazine-7-carboxamide]	31.6 to 316					31.6 to 316	90	80
